The values that follow come from patent publication US20030161902A1, “Increased lifespan formulation” (priority 2001, published 2003).

In one data set the test system is mice. The settings on record: cited from earlier work.
The test system of a further data set is rodent. As to conditions: rodent trials, dietary supplementation; cited from earlier work.
Data set [1] can be described thus: Antioxidant activity of mouse food and pine bark extract (Table 2). In kind it is biochemical. The method, then: The experimental mice were fed ad libitum on Archer's mouse food pellets dosed with measured doses of pine bark extract manufactured as above. Preferably, the present composition is administered in a form selected from the group including: a tablet; a capsule; a suppository; an injection; a suspension; a drink; a tonic; a syrup; a powder; an ingredient in solid foods; an ingredient in liquid foods; and combinations thereof, all of which are considered equivalent. Most preferably, the composition is administered orally as a powder mixed with food. The antioxidant composition of the food was as follows (Table 2 below): […]

Consider `OCCS` [2-mercaptoethanol], for which, in the data set on mice (mice fed supplement), the “effect on maximum lifespan” value was “increase in maximum lifespan”. In the data set with mice (mouse, in vivo), the toxicity entry is “toxic”.
One may read the EC50 as the concentration giving half of the maximal effect. Regarding `O=C1O[C@H]([C@@H](O)CO)C(O)=C1O` [Vitamin C], the “effect on mean survivorship and maximum life span” value in the data set with rodent was “Increases in mean survivorship, but not maximum life span”. Besides, in data set [1] (antioxidant composition of sample), the EC50 turned out to be 3.79 µg/mL. The “RELATIVE ANTIOXIDANT ACTIVITY” value in data set [1] (relative to mouse pellet = 1) turned out to be 1.76.
For the compound vitamin E, in the data set with rodent, the “effect on mean survivorship and maximum life span” value was “Increases in mean survivorship, but not maximum life span”.
